Laboratory results as given in patent publication US8101596B2, “Loxapine analogs and methods of use thereof” (Hypnion Inc., priority 2004, dated 2012).

Key:
male Wistar rats = test: Sleep-wakefulness monitoring (SCORE-2000) in rats; type: in vivo, rat; conditions: CT-18
Description: Food and water were available ad libitum.
Treatments were administered orally as a bolus.
A parallel group study design was employed.

[1] = tested on: monkey cryopreserved hepatocytes; test: Metabolism in monkey cryopreserved hepatocytes; type: in vitro ADME; conditions: primate hepatocytes, 1 μM, in % (unit assumed)
Description: (§1) Metabolism of test articles in monkey and human cryopreserved hepatocytes was assayed as follows:
(§2) Sample is diluted with DMSO, to prepare 100 μM and 10 μM stocks. 0.1% formic acid in acetonitrile is prepared by the addition of 1 mL formic acid per 1 L acetonitrile (store RT for 3 months). 10 minute, 60 and 120 minute 96 well quenching plates are prepared with 150 μL acetonitrile+0.1% formic acid in each well. Store on ice or refrigerated.
(§3) Next, hepatocytes are thawed and 100 μL of cell suspension is placed into a microfuge tube with 100 μL 0.4% Trypan Blue solution and gently mix by inversion. A small amount of the stained cell suspension (approximately 15 μL) is placed into a clean hemacytometer with a coverslip. The hemacytometer is placed onto the stage of the microscope and the focus and power are adjusted until a single counting square fills the field. The number of cells in the four outside corner subdivided squares of the hemacytometer are counted. Viable cells are opalescent, round, and pale with a darker outline. Non-viable cells are dark, opaque blue.
(§4) 198 μL of hepatocytes are transferred to relevant wells on dosing plate.
(§5) Plates are preincubated for at least 15 min. Reactions are started 2 μL of appropriate test compound dilution from dosing plate. […]

[2] = tested on: human cryopreserved hepatocytes; test: Metabolism in human cryopreserved hepatocytes; type: in vitro ADME; conditions: 1 μM, in % (unit assumed)
Description: as §1, §2, §3, §4, §5

[3] = biological target: T1, human recombinant M1 expressed in CHO cells (Homo sapiens, UniProt P11229); test: M1 muscarinic receptor binding assay
T1 construct: purchased PerkinElmer, Inc., Wellesley, Mass; host or cells: CHO cells
T1 sequence (P11229 1-460): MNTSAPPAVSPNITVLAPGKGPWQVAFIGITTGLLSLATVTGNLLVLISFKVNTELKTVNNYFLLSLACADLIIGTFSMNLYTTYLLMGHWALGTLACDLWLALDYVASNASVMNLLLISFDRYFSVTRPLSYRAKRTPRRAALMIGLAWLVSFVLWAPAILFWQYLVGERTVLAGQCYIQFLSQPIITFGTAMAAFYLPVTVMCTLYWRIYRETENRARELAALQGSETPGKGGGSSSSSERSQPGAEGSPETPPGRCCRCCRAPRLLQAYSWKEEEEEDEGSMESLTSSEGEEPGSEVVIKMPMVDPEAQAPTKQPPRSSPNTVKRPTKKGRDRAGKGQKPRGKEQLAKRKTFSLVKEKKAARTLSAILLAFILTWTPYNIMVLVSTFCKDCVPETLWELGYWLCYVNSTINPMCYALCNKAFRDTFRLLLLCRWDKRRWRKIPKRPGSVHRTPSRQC

[4] = biological target: T2, human recombinant M2 expressed in CHO cells (Homo sapiens, UniProt P08172); test: M2 muscarinic receptor binding assay
T2 construct: purchased PerkinElmer, Inc., Wellesley, Mass; host or cells: CHO cells
T2 sequence (P08172 1-466): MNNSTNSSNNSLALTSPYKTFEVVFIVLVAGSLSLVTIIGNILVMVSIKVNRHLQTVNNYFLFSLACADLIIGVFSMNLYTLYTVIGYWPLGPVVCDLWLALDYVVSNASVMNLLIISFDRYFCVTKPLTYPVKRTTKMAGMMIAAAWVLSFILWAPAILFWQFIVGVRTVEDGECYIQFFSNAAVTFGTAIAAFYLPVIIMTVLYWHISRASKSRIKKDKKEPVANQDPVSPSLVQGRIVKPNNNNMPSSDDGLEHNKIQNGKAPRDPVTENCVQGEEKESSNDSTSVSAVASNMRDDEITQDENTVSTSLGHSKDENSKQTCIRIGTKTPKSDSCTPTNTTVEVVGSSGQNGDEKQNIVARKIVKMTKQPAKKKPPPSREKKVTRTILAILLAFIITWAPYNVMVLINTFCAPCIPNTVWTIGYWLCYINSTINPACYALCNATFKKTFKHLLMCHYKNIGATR

[5] = biological target: T3, human recombinant M3 expressed in CHO cells (Homo sapiens, UniProt P20309); test: M3 muscarinic receptor binding assay
T3 construct: purchased PerkinElmer, Inc., Wellesley, Mass; host or cells: CHO cells
T3 sequence (P20309 whole entry): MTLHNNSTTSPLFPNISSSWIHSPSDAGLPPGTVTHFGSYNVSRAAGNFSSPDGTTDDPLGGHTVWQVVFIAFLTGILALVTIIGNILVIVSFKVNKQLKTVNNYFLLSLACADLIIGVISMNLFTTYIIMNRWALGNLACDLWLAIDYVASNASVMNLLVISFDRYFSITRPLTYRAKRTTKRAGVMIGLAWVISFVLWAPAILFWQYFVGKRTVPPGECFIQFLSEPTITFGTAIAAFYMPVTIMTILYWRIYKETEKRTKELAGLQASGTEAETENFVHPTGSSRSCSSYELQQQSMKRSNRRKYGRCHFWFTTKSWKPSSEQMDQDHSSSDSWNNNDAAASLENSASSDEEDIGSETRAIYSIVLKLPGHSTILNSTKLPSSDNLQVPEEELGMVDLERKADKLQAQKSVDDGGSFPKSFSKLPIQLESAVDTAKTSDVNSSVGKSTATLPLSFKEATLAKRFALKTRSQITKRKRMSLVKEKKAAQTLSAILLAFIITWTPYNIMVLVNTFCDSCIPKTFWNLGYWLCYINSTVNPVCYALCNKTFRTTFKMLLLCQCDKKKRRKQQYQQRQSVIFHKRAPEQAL

H1 histamine receptor = biological target: T4, H1 histamine receptor (Bos taurus, UniProt P30546); conditions: reference compounds; read-out: Ki of reference compounds in H1 binding assay (unit inferred); cited from earlier work
T4 construct: the receptors were obtained from bovine cerebellar membrane tissue; from tissue; host or cells: bovine cerebellar membranes
T4 sequence (P30546 whole entry): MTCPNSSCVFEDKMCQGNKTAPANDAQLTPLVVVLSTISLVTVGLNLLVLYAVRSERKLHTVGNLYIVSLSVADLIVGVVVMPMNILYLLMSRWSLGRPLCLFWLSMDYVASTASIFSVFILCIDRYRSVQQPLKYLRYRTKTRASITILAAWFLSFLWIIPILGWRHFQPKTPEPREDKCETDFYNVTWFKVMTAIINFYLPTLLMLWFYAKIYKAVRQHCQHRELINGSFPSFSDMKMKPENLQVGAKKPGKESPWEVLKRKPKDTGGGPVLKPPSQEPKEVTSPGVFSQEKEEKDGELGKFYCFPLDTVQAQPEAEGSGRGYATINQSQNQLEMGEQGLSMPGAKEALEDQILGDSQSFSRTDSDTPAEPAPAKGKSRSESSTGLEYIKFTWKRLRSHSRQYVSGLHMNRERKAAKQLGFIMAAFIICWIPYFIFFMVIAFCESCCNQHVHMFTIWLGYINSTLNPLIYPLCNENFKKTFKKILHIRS

Row | SMILES | LUSB (longest uninterrupted sleep bout) (male Wistar rats; 10 mg/kg oral) | also measured
1 | CC(C)(CN1CCN(C2=Nc3ccccc3Oc3ccccc32)CC1)C(=O)O [Compound 1] | 19.7 ± 6.7 min | LUSB (longest uninterrupted sleep bout) (male Wistar rats; 1 mg/kg oral): 6.0 ± 2.3 min; LUSB (longest uninterrupted sleep bout) (male Wistar rats; 3 mg/kg oral): 18.8 ± 3.0 min
2 | CC(C)(CN1CCN(C2=Nc3ccccc3Oc3ccc(Cl)cc32)CC1)C(=O)O [Compound 5] | 8.7 ± 3.3 min | remaining 120 minutes after treatment [1]: 75.105; remaining 120 minutes after treatment [2]: 90.405; LUSB (longest uninterrupted sleep bout) (male Wistar rats; 3 mg/kg oral): 13.5 ± 4.0 min
3 | CC(C)(CCN1CCN(C2=Nc3ccccc3Oc3ccc(Cl)cc32)CC1)C(=O)O [Compound 6] |  | Ki [3]: > 10 µM; Ki [4]: > 10 µM; Ki [5]: > 10 µM
4 | CC(C)(CN1CCN(C2=Nc3ccccc3Oc3ccc(Br)cc32)CC1)C(=O)O [Compound 8] | 16.7 ± 3.0 min | 
5 | COc1ccc2c(c1)C(N1CCN(CC(C)(C)C(=O)O)CC1)=Nc1ccccc1O2 [Compound 12] | 18.1 ± 2.1 min | LUSB (longest uninterrupted sleep bout) (male Wistar rats; 1 mg/kg oral): 7.7 ± 3.2 min; LUSB (longest uninterrupted sleep bout) (male Wistar rats; 3 mg/kg oral): 8.3 ± 3.0 min
6 | CC(C)(CN1CCN(C2=Nc3cc(Br)ccc3Oc3ccccc32)CC1)C(=O)O [Compound 17] | 5.0 ± 2.0 min | 
7 | Cc1ccc2c(c1)N=C(N1CCN(CC(C)(C)C(=O)O)CC1)c1ccccc1O2 [Compound 19] | 11.7 ± 4.0 min | LUSB (longest uninterrupted sleep bout) (male Wistar rats; 3 mg/kg oral): 18.6 ± 3.3 min
8 | Cc1ccc2c(c1)N=C(N1CCN(CC(C)(C)C(=O)O)CC1)c1cc(C)ccc1O2 [Compound 20] | 4.7 ± 2.3 min | 
9 | CC(C)(CN1CCN(C2=Nc3ccccc3Oc3ccccc32)CC1)C(=O)NS(C)(=O)=O [Compound 40] | 7.6 ± 4.2 min | LUSB (longest uninterrupted sleep bout) (male Wistar rats; 30 mg/kg oral): 16.4 ± 2.9 min
10 | COc1ccc2c(c1)N=C(N1CCN(CC(C)(C)C(=O)O)CC1)c1ccc(OC)cc1O2 [Compound 42] | 4.8 ± 2.7 min | 
11 | Cc1ccc2c(c1)Oc1ccccc1N=C2N1CCN(CC(C)(C)C(=O)O)CC1 [Compound 46] | 11.1 ± 3.7 min | LUSB (longest uninterrupted sleep bout) (male Wistar rats; 1 mg/kg oral): 4.1 ± 1.6 min; LUSB (longest uninterrupted sleep bout) (male Wistar rats; 3 mg/kg oral): 17 ± 4.4 min
12 | Cc1ccc2c(c1)C(N1CCN(CC(C)(C)C(=O)O)CC1)=Nc1cc(Br)ccc1O2 [Compound 50] | 3.4 ± 2.6 min | 
13 | COc1ccc2c(c1)C(N1CCN(CC(C)(C)C(=O)O)CC1)=Nc1cc(Br)ccc1O2 [Compound 51] | 10.1 ± 3.6 min | 
14 | Cc1ccc2c(c1)N=C(N1CCN(CC(C)(C)C(=O)O)CC1)c1ccc(C)cc1O2 [Compound 52] | 15.9 ± 2.3 min | 
15 | COc1ccc2c(c1)C(N1CCN(CC(C)(C)C(=O)O)CC1)=Nc1cc(C)ccc1O2 [Compound 54] | 11.1 ± 2.9 min | 
16 | COc1ccc2c(c1)N=C(N1CCN(CC(C)(C)C(=O)O)CC1)c1cc(C)ccc1O2 [Compound 56] | 11.7 ± 2.3 min | 
17 | CN(C)CCCSC(=N)N [dimaprit] |  | Ki (H1 histamine receptor): > 110 µM
